Results from patent publication US11142548B2, “Agents that activate CD47 and their use in the treatment of inflammation” (SORBONNE UNIVERSITE, priority 2016, dated 2021).
Non-standard residues stand in square brackets, D forms with d. Residues, ends and D or L forms follow the SMILES beside them. NMeR = CN[C@@H](CCCNC(=N)N)C(=O)O; Nle = CCCC[C@H](N)C(=O)O

How the values were obtained:
[1] = test system: human monocytes; assay: Monocyte/RPE co-culture, monocyte number; format: cell-based; conditions: for number of PU1+ Mos, dose response: HTRA1-activated co-cultures, dose dependently
Excerpt: In accordance with the Declaration of Helsinki, volunteers provided written and informed consent for the human monocyte expression studies, which were approved by the Centre national d'ophthalmologic des Quinze-Vinet hospital (Paris, France) ethics committees (no. 913572). PBMCs were isolated from heparinized venous blood from healthy volunteer individuals by 1-step centrifugation on a Ficoll Paque layer (GE Healthcare) and sorted with EasySep Human Monocyte Enrichment Cocktail without CD16 Depletion Kit (StemCells Technology). Mouse peritoneal macrophages, bone marrow-derived monocytes and photoreceptor outer segment (POS) isolation (all in serum-free X-Vivo 15 medium) were performed as previously described (Sennlaub et al, EMBO Mol Med. 2013, 5:1775-1793). For co-culture experiments the mononuclear monocytes were either stained using CellTrace™ CFSE (Life Technologies®) and then washed three times or they were identified by PU1 immunohistochemistry, a MP-specific transcription factor not expressed in RPE.
(§1) Fresh pig eyes were obtained from the slaughter house 2-3 hours after enucleation. They were cleaned of surrounding tissue and immersed briefly in antiseptic solution (Pursept®). The anterior part of the eye was removed, as the lens, vitreous and vitreous. The posterior segments were washed 2 times with PBS (Phosphate Buffered Saline) and then incubated at 37° C. in the presence of 0.25% trypsin, to detach the RPE cells. After 1 h incubation, the trypsin solution was removed and the cells recovered in Dulbecco's Modified Eagle's Medium (DMEM) supplemented with 20% fetal calf serum (FCS) decomplemented and in the presence of antibiotics (1% penicillin/Streptomycin). The cells were washed several times and then incubated at 37° C. in culture dishes. Three days after the culturing, these cells were again incubated with by 0.25% trypsin, washed, and seeded into 48 wells culture plates (Grenier®) at a density of 150,000 cells/culture well (300,000 cells/[…] or 500 μL/well). Cell confluence was obtained after 4 days of incubation at 37° C. with optimum cell characteristics (squamous cells, well pigmented). To avoid the aging of these primary cell cultures, all the experiments were conducted between the 5th and 7th day after seeding the culture plates.
The culture medium of RPE cells was changed the day before the co-culture with DMEM without FCS (DMEM+1% Penicillin/Streptomycin only). Monocytes were plated onto the wells in the presence or absence of RPE cells at a concentration of 200,000 cells/culture well in a 48-well plate.
Part of co-culture well was brought into contact with 1 ng/ml of Lipopolysaccharide (LPS) from E. coli or recombinant HTRA1 (R & D, 5 μg/ml), to simulate a systemic inflammatory activation (LPS) or microenvironment similar to AMD (increase HTRA1) (see above). […]
RPE cells were permeabilized, after washing PAF 4%, with a solution of PBS-0.1% Triton-Citrate 0.1%. Nonspecific immunogenic sites were blocked with PBS-0.1% Triton-5% horse serum. After 1 hour, the blocking solution was removed and the cells were placed in presence of the with the primary antibodies (polyclonal rabbit anti-human PU.1, 1/200, LifeTechnologies; polyclonal goat anti-human OTX2, 1/500, R&D) diluted in PBS triton 0.1% and 1% horse serum and incubated at 4° C. for 12 h. After three washes with PBS, the secondary antibody coupled to a fluorochrome and diluted in PBS-0.1% Triton-1% horse serum was added along with DAPI (nuclear staining) and left for 1 hour at temperature ambient and then washed several times with PBS.
25 fields per well were analyzed Arrayscan® then the number of cells for each culture condition was counted directly by a computer protocol. All nuclei were labeled with DAPI, monocytes were marked in green 488 nm (CellTrace™ CFSE) or and RPE cells in far red 647 nm (recognition of anti-OTX2 primary antibody). […]

[2] = test system: recruited monocyte-derived inflammatory macrophages (recMφ); assay: Thioglycollate-induced peritonitis; format: in vivo, mouse; conditions: single intra-peritoneal injection at day 1, observed at day 2
Method: Mouse peritoneal exudate cells (PECs) were elicited by i.p. injection of 0,5 ml 3% thioglycollate (T9032, Sigma) into 10 weeks old male C57BL/6J and Cd47^−/− mice. After 1 day, PECs were isolated by flushing of the peritoneum with ice-cold PBS, Mφs were negatively selected by magnetic sorting following the manufacturers protocol (EasySep Mouse Monocyte Enrichment Kit, Stemcell Technologies), resuspended in X-VIVO 15 medium (Lonza), and plated in Lab-Tek® Chamber Slide™ (Nunc®).
To test whether CD47 influences inflammation resolution in other pathological contexts, a model of acute thioglycollate-induced peritonitis was used, characterized by an early accumulation of neutrophils, followed by recruited monocyte-derived inflammatory macrophages (recMφ), both experiencing an apoptosis-driven elimination at different kinetics (Gautier et al., Blood. 2013, 122:2714-2722).

[3] = test system: porcine RPE; assay: Monocyte/RPE co-culture, RPE cell number (OTX2+ nuclei); format: cell-based; conditions: for number/survival of RPE cells in co-culture: HTRA1 5 μg/mL, OTX2 nuclear marker
Method: as §1
The culture medium of RPE cells was changed the day before the co-culture with DMEM without FCS (DMEM+1% Penicillin/Streptomycin only). Monocytes were plated onto the wells in the presence or absence of RPE cells at a concentration of 200,000 cells/culture well in a 48-well plate. […]
25 fields per well were analyzed Arrayscan® then the number of cells for each culture condition was counted directly by a computer protocol. […] For graphs where quantifications from several plates were pooled (FIGS. 4D and E) results were expressed as the percentage of the number of PU.1 or OTX2 positive cells normalized with the HTRA1 treated condition. […]

[4] = test system: subretinal IBA-1+ MPs; assay: Laser-injury model in Cx3cr1GFP/GFP mice; format: in vivo, mouse; conditions: 2 μl intravitreal at day 4 and day 7, day 10, vs PBS or 4NGG
Method: (§2) Laser-coagulations were performed with a 532 nm ophtalmological laser mounted on an operating microscope (Vitra Laser, 532 nm, 450 mW, 50 ms, and 250 μm): Intravitreal injections of 2 μl of HTRA1 and/or TSP1 were performed using glass capillaries (Eppendorf) and a micro injector. The 2 μl injection solution contained 50 μg/ml TSP1 and HTRA1, corresponding to an intraocular concentration of 5 μg/ml of each protein assuming their dilution by approximately 1/10th in the intra-ocular volume. […] A volume of 2 μl of a 100 μM solution of either PBS, recombinant TSP1 (10 μg/ml), the 4NGG control peptide or the CD47-activating peptide PKT16 (200 μM) was injected at day 4 (when MP infiltration is maximal) and day 7 after the injury and evaluated subretinal inflammation on flatmounted RPE/choroidal flatmounts at day 10.
(§3) Eyes were enucleated, fixed in 4% PFA 30 minutes and sectioned at the limbus; the cornea and lens were discarded. […] Choroids and retinas were flatmounted and viewed with a fluorescence microscope DM5500B (Leica). IBA-1+ cells were counted on whole RPE/choroidal flatmounts and on the outer segment side of the retina. […]

[5] = test system: subretinal IBA-1+ mononuclear monocytes; assay: Laser-induced subretinal inflammation in wildtype- and Tsp1-/- mice; format: in vivo, mouse; conditions: wildtype mice, intravitreal injection at d3, quantification at d7
Method: as §2, §3

[6] = target: T1, HTRA1 (Homo sapiens, UniProt Q92743); assay: Co-incubation of recombinant TSP1 or TSP2 with recombinant HTRA1 (Coomassie staining, Western blot); format: biochemical; conditions: co-incubation at 37° C. for 24 h, Coomassie gel
T1 construct: purchased R & D
Method: WB analysis was performed using a monoclonal anti-TSP1 antibody (Abeam), as previously described (Houssier et al., PLoS Med. 2008, 5:e39). RT-PCRs primers were ordered from Taqman, reference: Hs01016151_m1.
Western blot analysis of the proteins confirmed the disappearance of the whole sized TSP1 and the appearance of several smaller bands in the co-incubated condition (FIG. 3A). […] Next the functionality of rTSP1 and HTRA1-digested TSP1 was analyzed in laser-induced subretinal inflammation in vivo. […] Accordingly, associated choroidal neovascularization, measured as the surface covered by CD102^−CNV on choroidal flatmounts at d7, underwent the same differences (FIG. 3D).

T1 sequence (Q92743 23-480): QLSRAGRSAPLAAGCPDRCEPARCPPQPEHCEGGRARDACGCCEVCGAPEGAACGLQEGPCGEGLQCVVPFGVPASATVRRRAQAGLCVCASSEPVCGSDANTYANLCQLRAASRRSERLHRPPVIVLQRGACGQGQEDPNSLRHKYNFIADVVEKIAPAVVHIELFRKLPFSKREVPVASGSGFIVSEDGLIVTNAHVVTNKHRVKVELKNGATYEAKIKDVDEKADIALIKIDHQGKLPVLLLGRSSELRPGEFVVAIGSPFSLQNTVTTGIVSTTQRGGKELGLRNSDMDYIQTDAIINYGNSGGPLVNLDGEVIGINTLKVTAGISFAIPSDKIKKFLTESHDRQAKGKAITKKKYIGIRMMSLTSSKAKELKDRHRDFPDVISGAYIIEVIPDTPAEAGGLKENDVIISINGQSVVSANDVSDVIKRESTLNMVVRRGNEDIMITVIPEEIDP

4N1K-GGGGGGGG-4N1K (KRFYVVMWKKGGGGGGGGKRFYVVMWKK) [d4N1K]
Mo elimination compared with 4N1K ([1]; HTRA1-activated co-cultures, 0, 4, 20 and 50 μM, 48 h): significantly more effective

CSCC[C@H](NC(=O)[C@@H](NC(=O)[C@@H](NC(=O)[C@H](Cc1ccc(O)cc1)NC(=O)[C@H](Cc1ccccc1)NC(=O)[C@H](CCCNC(=N)N)NC(=O)[C@H](N)CCCCN)C(C)C)C(C)C)C(=O)N[C@@H](Cc1c[nH]c2ccccc12)C(=O)N[C@@H](CCCCN)C(=O)N[C@H](CCCCN)C(=O)O [PKHB1, (D)K-R-F-Y-V-V-M-W-K-(D)K]
elimination of recMφs [2]: significantly accelerated the elimination

CCCC[C@H](NC(=O)[C@@H](NC(=O)[C@@H](NC(=O)[C@H](Cc1ccc(O)cc1)NC(=O)[C@H](Cc1ccccc1)NC(=O)[C@H](CCCNC(=N)N)N(C)C(=O)[C@H](N)CCCCN)C(C)C)C(C)C)C(=O)N[C@@H](Cc1c[nH]c2ccccc12)C(=O)N[C@@H](CCCCN)C(=O)N[C@H](CCCCN)C(=O)O [PKT16, (D)K-(NMeR)-F-Y-V-V-Nle-W-K-(D)K] (H-[dK][NMeR]FYVV[Nle]WK[dK]-OH)
number of PU1+ Mos, dose response ([1]; 48 h): diminished the number of Mos | CFSE+ monocytes number in HTRA1 treated co-culture ([1]; peptide 100 μM added directly, HTRA1 5 μg/mL, 24 h): completely reversed | toxicity to RPE cells (number of OTX2+ nuclei) ([3]; HTRA1 treated co-culture with peptide): No toxicity | elimination of subretinal IBA-1+ MPs adjacent to the laser impact [4]: eliminated significantly more efficiently

KRFYVVMWKK (4N1K peptide) [reference compound]
number of PU1+ Mos, dose response ([1]; 48 h): diminished the number of Mos

rHTRA1: recombinant HTRA1 (R & D), high-temperature requirement A serine peptidase 1
monocytes survival in co-culture ([1]; HTRA1 5 μg/mL): significantly increased | hMos number relative to control conditions ([1]; HTRA1 5 μg/mL added to co-culture, 24 h): 3 to 4 times | effect of HTRA1 on Mo number after heat-inactivation ([1]; heat-inactivated HTRA1 (not shown)): abolished its effect | laser-induced subretinal inflammation in wildtype mice [5]: aggravates | number/survival of RPE cells in co-culture ([3]; listed as HTRA1): did not influence survival | number/survival of RPE cells in co-culture ([3]; listed as Recombinant HTRA1): did not diminish significantly

recombinant TSP2: recombinant TSP2, contains one VVM site, resistant to HTRA1
degradation by recombinant HTRA1 [6]: no such degradation
